Data taken from patent US10233182B2, “Substituted spirocyclic inhibitors of autotaxin” (X-Rx, Inc., priority 2014, dated 2019).
pIC50: −log10 of the molar value. Counter-ions that a name gives are not always drawn.

biological target: Autotaxin (Homo sapiens (Human), UniProt Q13822); experiment: Autotaxin LPC Cascade Assay; type: biochemical; settings: Autotaxin 5 nM, LPC 100 μM, choline oxidase/HRP/Ampliflu Red fluorescence read-out, 2% DMSO, RT; read-out: IC50 ATX Activity
Summary of the method: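 Choline liberated from LPC by autotaxin during 1 h, after a 10-min RT compound preincubation, was converted through choline oxidase/HRP to a fluorescent Ampliflu Red product.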

Row | Compound | pIC50
1 | CC(C)[C@@H](NC(=O)c1cc(C(F)(F)F)ccc1F)C(=O)N1CCC2(CC1)C(=O)N(C)C(=O)N2c1ccc(F)cc1 [Example 182, (R)-2-Fluoro-N-(1-(1-(4-fluorophenyl)-3-methyl-2,4-dioxo-1,3,8-triazaspiro[4.5]decan-8-yl)-3-methyl-1-oxobutan-2-yl)-5-(trifluoromethyl)benzamide] | > 6.30
2 | CC(C)[C@@H](NC(=O)c1ccncc1)C(=O)N1CCC2(CC1)C(=O)N(C)C(=O)N2c1ccc2[nH]ncc2c1 [Example 231, (R)—N-(1-(1-(1H-Indazol-5-yl)-3-methyl-2,4-dioxo-1,3,8-triazaspiro[4.5]decan-8-yl)-3-methyl-1-oxobutan-2-yl)isonicotinamide] | ≤ 6.00
3 | CCc1ccc(F)c(C(=O)N[C@@H](C(=O)N2CCC3(CC2)C(=O)N(C)CN3c2ccc(=O)n(C)c2)C(C)C)c1 [Example 201, (R)-5-Ethyl-2-fluoro-N-(3-methyl-1-(3-methyl-1-(1-methyl-6-oxo-1,6-dihydropyridin-3-yl)-4-oxo-1,3,8-triazaspiro[4.5]decan-8-yl)-1-oxobutan-2-yl)benzamide] | > 6.30
4 | CC(C)[C@@H](NC(=O)c1cc(C(F)(F)F)ccc1F)C(=O)N1CCC2(CC1)C(=O)N(C)C(=O)N2Cc1ccnc(C#N)c1 [Example 113] | ≤ 6.00
5 | CCc1ccc(F)c(C(=O)N[C@@H](C(=O)N2CCC3(CC2)C(=O)N(C)CN3c2ccc(OCC(=O)O)cc2)C(C)C)c1 [Example 168, (R)-2-(4-(8-(2-(5-Ethyl-2-fluorobenzamido)-3-methylbutanoyl)-3-methyl-4-oxo-1,3,8-triazaspiro[4.5]decan-1-yl)phenoxy)acetic Acid] | > 6.30
6 | CC(C)[C@@H](NC(=O)c1cc(C(F)(F)F)ccc1F)C(=O)N1CCC2(CC1)C(=O)N(C)CN2c1ccc(-c2nc[nH]n2)cc1 [Example 220, (R)—N-(1-(1-(4-(1H-1,2,4-Triazol-3-yl)phenyl)-3-methyl-4-oxo-1,3,8-triazaspiro[4.5]decan-8-yl)-3-methyl-1-oxobutan-2-yl)-2-fluoro-5-(trifluoromethyl)benzamide] | > 6.30
7 | CC(C)[C@@H](NC(=O)c1cc(C(F)(F)F)ccc1F)C(=O)N1CCC2(CC1)C(=O)N(C)C(=O)N2c1cnn(C)c1 [Example 17, (R)-2-Fluoro-N-(3-methyl-1-(3-methyl-1-(1-methyl-1H-pyrazol-4-yl)-2,4-dioxo-1,3,8-triazaspiro[4.5]decan-8-yl)-1-oxobutan-2-yl)-5-(trifluoromethyl)benzamide] | ≤ 6.00
8 | CCc1ccc(F)c(C(=O)N[C@@H](C(=O)N2CCC3(CC2)C(=O)N(C)CN3c2ccc3nc[nH]c3c2)C(C)C)c1 [Example 216, (R)—N-(1-(1-(1H-Benzo[d]imidazol-6-yl)-3-methyl-4-oxo-1,3,8-triazaspiro[4.5]decan-8-yl)-3-methyl-1-oxobutan-2-yl)-5-ethyl-2-fluorobenzamide] | > 6.30
9 | CN1C(=O)N(c2ccc3[nH]ncc3c2)C2(CCN(C(=O)CNC(=O)c3cc(C(F)(F)F)ccc3F)CC2)C1=O [Example 70, N-(2-(1-(1H-Indazol-5-yl)-3-methyl-2,4-dioxo-1,3,8-triazaspiro[4.5]decan-8-yl)-2-oxoethyl)-2-fluoro-5-(trifluoromethyl)benzamide] | ≤ 6.00
10 | CC(C)[C@@H](NC(=O)c1cc(C(F)(F)F)ccc1F)C(=O)N1CCC2(CC1)C(=O)N(C)C(=O)N2c1ccc(OCC2CNC2)cc1 [Example 81, (R)—N-(1-(1-(4-(Azetidin-3-ylmethoxy)phenyl)-3-methyl-2,4-dioxo-1,3,8-triazaspiro[4.5]decan-8-yl)-3-methyl-1-oxobutan-2-yl)-2-fluoro-5-(trifluoromethyl)benzamide trifluoroacetic Acid Salt] | ≤ 6.00
11 | CC(C)[C@@H](NC(=O)C(C)(C)C)C(=O)N1CCC2(CC1)C(=O)N(C)C(=O)N2c1ccc2[nH]ncc2c1 [Example 232, (R)—N-(1-(1-(1H-Indazol-5-yl)-3-methyl-2,4-dioxo-1,3,8-triazaspiro[4.5]decan-8-yl)-3-methyl-1-oxobutan-2-yl)pivalamide] | ≤ 6.00
12 | CC(C)[C@@H](NC(=O)c1cc(C(F)(F)F)ccc1F)C(=O)N1CCC2(CC1)C(=O)N(C)C(=O)N2Cc1ccn2ccnc2c1 [Example 102, (R)-2-Fluoro-N-(1-(1-(imidazo[1,2-a]pyridin-7-ylmethyl)-3-methyl-2,4-dioxo-1,3,8-triazaspiro[4.5]decan-8-yl)-3-methyl-1-oxobutan-2-yl)-5-(trifluoromethyl)benzamide] | 6.00 to 6.30
13 | COc1cccc(N2C(=O)N(C)C(=O)C23CCN(C(=O)[C@H](NC(=O)c2cc(C(F)(F)F)ccc2F)C(C)C)CC3)c1 [Example 10, (R)-2-Fluoro-N-(1-(1-(3-methoxyphenyl)-3-methyl-2,4-dioxo-1,3,8-triazaspiro[4.5]decan-8-yl)-3-methyl-1-oxobutan-2-yl)-5-(trifluoromethyl)benzamide] | > 6.30
14 | Cc1nc2cc(N3C(=O)N(C)C(=O)C34CCN(C(=O)[C@H](NC(=O)c3cc(C(F)(F)F)ccc3F)C(C)C)CC4)ccc2o1 [Example 246, (R)—N-(1-(1-(2-Methylbenzo[d]oxazol-5-yl)-3-methyl-2,4-dioxo-1,3,8-triazaspiro[4.5]decan-8-yl)-3-methyl-1-oxobutan-2-yl)-2-fluoro-5-(trifluoromethyl)benzamide] | > 6.30
